ChEMBL document CHEMBL1687752, “Impact of antifungal prophylaxis on colonization and azole susceptibility of Candida species” (2009)
≈ marks a conversion by molar mass, not a printed value.

tested on: Pichia kudriavzevii; assay: Antifungal activity against 16 days cultured Candida krusei isolated from neutropenic subject with AML or MDS pharynx receiving antifungal therapy for 19 days after 6 days of prophylaxis by broth microdilution method; type: functional; conditions: not given

Row | Compound | MIC [µg/mL]
1 | OC(Cn1cncn1)(Cn1cncn1)c1ccc(F)cc1F [FLUCONAZOLE] | 64 (≈ 209 µM)

tested on: Nakaseomyces glabratus; assay: Antifungal activity against Candida glabrata isolated from neutropenic subject 1102 with AML or MDS stool after 26 days prophylaxis by broth microdilution method; type: functional; conditions: 624 h

Row | Compound | MIC [µg/mL]
2 | OC(Cn1cncn1)(Cn1cncn1)c1ccc(F)cc1F [FLUCONAZOLE] | 4 (≈ 13.1 µM)

tested on: Nakaseomyces glabratus; assay: Antifungal activity against Candida glabrata isolated from neutropenic subject 1187 with AML or MDS stool receiving antifungal drug after 22 days prophylaxis by broth microdilution method; type: functional; conditions: 528 h

Row | Compound | MIC [µg/mL]
3 | OC(Cn1cncn1)(Cn1cncn1)c1ccc(F)cc1F [FLUCONAZOLE] | 32 (≈ 104 µM)

tested on: Pichia kudriavzevii; assay: Antifungal activity against 8 days cultured Candida krusei isolated from neutropenic subject with AML or MDS pharynx after 12 days of prophylaxis by broth microdilution method; type: functional; conditions: not given

Row | Compound | MIC [µg/mL]
4 | OC(Cn1cncn1)(Cn1cncn1)c1ccc(F)cc1F [FLUCONAZOLE] | > 64

tested on: Nakaseomyces glabratus; assay: Antifungal activity against Candida glabrata isolated from neutropenic subjects with AML or MDS prior to initiation of fluconazole therapy by broth microdilution method; type: functional; conditions: not given

Row | Compound | MIC50 [µg/mL] | MIC90 [µg/mL]
5 | OC(Cn1cncn1)(Cn1cncn1)c1ccc(F)cc1F [FLUCONAZOLE] | 8 (≈ 26.1 µM) | 16 (≈ 52.2 µM)

tested on: Nakaseomyces glabratus; assay: Antifungal activity against Candida glabrata isolated from HSCT recipient 497 with acute or chronic GVHD mouth receiving antifungal drug after 114 days prophylaxis by broth microdilution method; type: functional; conditions: not given

Row | Compound | MIC [µg/mL]
6 | OC(Cn1cncn1)(Cn1cncn1)c1ccc(F)cc1F [FLUCONAZOLE] | 32 (≈ 104 µM)

tested on: Nakaseomyces glabratus; assay: Antifungal activity against Candida glabrata isolated from HSCT recipient 002 with acute or chronic GVHD mouth receiving antifungal drug after 116 days prophylaxis by broth microdilution method; type: functional; conditions: not given

Row | Compound | MIC [µg/mL]
7 | OC(Cn1cncn1)(Cn1cncn1)c1ccc(F)cc1F [FLUCONAZOLE] | 64 (≈ 209 µM)

tested on: Nakaseomyces glabratus; assay: Antifungal activity against 29 days cultured Candida glabrata isolated from neutropenic subject with AML or MDS pharynx after 48 days of prophylaxis by broth microdilution method; type: functional; conditions: not given

Row | Compound | MIC [µg/mL]
8 | OC(Cn1cncn1)(Cn1cncn1)c1ccc(F)cc1F [FLUCONAZOLE] | > 64

tested on: Nakaseomyces glabratus; assay: Antifungal activity against 31 days cultured Candida glabrata isolated from HSCT recipient with acute or chronic GVHD mouth receiving antifungal therapy for 31 days after 28 days of prophylaxis by broth microdilution method; type: functional; conditions: not given

Row | Compound | MIC [µg/mL]
9 | OC(Cn1cncn1)(Cn1cncn1)c1ccc(F)cc1F [FLUCONAZOLE] | < 4

tested on: Saccharomyces cerevisiae; assay: Antifungal activity against Saccharomyces cerevisiae isolated from HSCT recipient 513 with acute or chronic GVHD mouth after 112 days prophylaxis by broth microdilution method; type: functional; conditions: not given

Row | Compound | MIC [µg/mL]
10 | OC(Cn1cncn1)(Cn1cncn1)c1ccc(F)cc1F [FLUCONAZOLE] | 8 (≈ 26.1 µM)

tested on: Nakaseomyces glabratus; assay: Antifungal activity against Candida glabrata isolated from HSCT recipients with acute or chronic GVHD prior to initiation of posaconazole therapy assessed as maximum MIC by broth microdilution method; type: functional; conditions: not given

Row | Compound | MIC [µg/mL]
11 | OC(Cn1cncn1)(Cn1cncn1)c1ccc(F)cc1F [FLUCONAZOLE] | 64

tested on: Nakaseomyces glabratus; assay: Antifungal activity against Candida glabrata isolated from neutropenic subjects with AML or MDS receiving posaconazole by broth microdilution method; type: functional; conditions: not given

Row | Compound | MIC50 [µg/mL] | MIC90 [µg/mL]
12 | OC(Cn1cncn1)(Cn1cncn1)c1ccc(F)cc1F [FLUCONAZOLE] | 8 (≈ 26.1 µM) | 64 (≈ 209 µM)

tested on: Nakaseomyces glabratus; assay: Antifungal activity against Candida glabrata isolated from HSCT recipient 474 with acute or chronic GVHD mouth after 124 days prophylaxis by broth microdilution method; type: functional; conditions: not given

Row | Compound | MIC [µg/mL]
13 | OC(Cn1cncn1)(Cn1cncn1)c1ccc(F)cc1F [FLUCONAZOLE] | 16 (≈ 52.2 µM)

tested on: Nakaseomyces glabratus; assay: Antifungal activity against Candida glabrata isolated from HSCT recipient 186 with acute or chronic GVHD mouth after 112 days prophylaxis by broth microdilution method; type: functional; conditions: not given

Row | Compound | MIC [µg/mL]
14 | OC(Cn1cncn1)(Cn1cncn1)c1ccc(F)cc1F [FLUCONAZOLE] | 8 (≈ 26.1 µM)

tested on: Nakaseomyces glabratus; assay: Antifungal activity against 85 days cultured Candida glabrata isolated from HSCT recipient with acute or chronic GVHD mouth receiving antifungal therapy for 143 days after 116 days of prophylaxis by broth microdilution method; type: functional; conditions: not given

Row | Compound | MIC [µg/mL]
15 | OC(Cn1cncn1)(Cn1cncn1)c1ccc(F)cc1F [FLUCONAZOLE] | 64 (≈ 209 µM)

tested on: Nakaseomyces glabratus; assay: Antifungal activity against 15 days cultured Candida glabrata isolated from HSCT recipient with acute or chronic GVHD mouth receiving antifungal therapy for 168 days after 113 days of prophylaxis by broth microdilution method; type: functional; conditions: not given

Row | Compound | MIC [µg/mL]
16 | OC(Cn1cncn1)(Cn1cncn1)c1ccc(F)cc1F [FLUCONAZOLE] | 64 (≈ 209 µM)

tested on: Pichia kudriavzevii; assay: Antifungal activity against 16 days cultured Candida krusei isolated from neutropenic subject with AML or MDS stool receiving antifungal therapy for 19 days after 6 days of prophylaxis by broth microdilution method; type: functional; conditions: not given

Row | Compound | MIC [µg/mL]
17 | OC(Cn1cncn1)(Cn1cncn1)c1ccc(F)cc1F [FLUCONAZOLE] | 64 (≈ 209 µM)

tested on: Nakaseomyces glabratus; assay: Antifungal activity against 19 days cultured Candida glabrata isolated from HSCT recipient with acute or chronic GVHD mouth after 17 days of prophylaxis by broth microdilution method; type: functional; conditions: not given

Row | Compound | MIC [µg/mL]
18 | OC(Cn1cncn1)(Cn1cncn1)c1ccc(F)cc1F [FLUCONAZOLE] | > 64

tested on: Nakaseomyces glabratus; assay: Antifungal activity against Candida glabrata isolated from neutropenic subjects with AML or MDS receiving fluconazole by broth microdilution method; type: functional; conditions: not given

Row | Compound | MIC50 [µg/mL] | MIC90 [µg/mL]
19 | OC(Cn1cncn1)(Cn1cncn1)c1ccc(F)cc1F [FLUCONAZOLE] | 4 (≈ 13.1 µM) | 16 (≈ 52.2 µM)
